From paper PMC10605847 (Cancers, 2023) come the findings set out here.

SMILES strings stand for the structures.

Data set [1] in a line: MTT cell viability, Hek-293. Particulars: human, Hek-293 cells.
Description: (§1) For all experiments using cell lines, cells were cultured in a DMEM culture medium with the addition of 10% fetal bovine serum, 2 mM glutamine and 1% penicillin-streptomycin as antibiotics under standard conditions at 37 °C with 5% CO2.
(§2) Cell viability was measured using MTT analysis, as described earlier [48]. In short, 10,000 HeLa and Hek-293 cells per well were placed in sterile 96-well culture plates and cultured under the standard conditions described above for 24 h to adhere. After the time elapsed, the cells were treated with the studied compounds in a concentration range from 0.1 to 100 µM (0.1–1–3–10–30–100) and incubated for 24 h. The control samples contained an equivalent volume of solvent (DMSO < 1%). At the end of incubation, cell viability was measured by adding an MTT solution (the final concentration was 5 mg/mL, DiaM, Moscow, Russia). After 2 h of incubation at 37 °C, the nutrient medium was carefully aspirated and replaced with 200 µL of dimethyl sulfoxide to dissolve the formazane granules. The optical density of the formazane solution was determined using a multifunctional analyzer Cytation™3 (BioTek Instruments, Inc., Winooski, VT, USA) at λ = 530 nm. All experiments were carried out in three repetitions.
The test system of a further data set is HeLa cells. Description: MTT cell viability, HeLa. Conditions: Homo sapiens, 24 h, read-out: IC50 cytotoxic effect, HeLa.
The target of another data set is T1, HDAC1 (Homo sapiens, UniProt Q13547).
T1 construct: purchased Enzo Life Sciences International, Inc
T1 sequence (Q13547 whole entry): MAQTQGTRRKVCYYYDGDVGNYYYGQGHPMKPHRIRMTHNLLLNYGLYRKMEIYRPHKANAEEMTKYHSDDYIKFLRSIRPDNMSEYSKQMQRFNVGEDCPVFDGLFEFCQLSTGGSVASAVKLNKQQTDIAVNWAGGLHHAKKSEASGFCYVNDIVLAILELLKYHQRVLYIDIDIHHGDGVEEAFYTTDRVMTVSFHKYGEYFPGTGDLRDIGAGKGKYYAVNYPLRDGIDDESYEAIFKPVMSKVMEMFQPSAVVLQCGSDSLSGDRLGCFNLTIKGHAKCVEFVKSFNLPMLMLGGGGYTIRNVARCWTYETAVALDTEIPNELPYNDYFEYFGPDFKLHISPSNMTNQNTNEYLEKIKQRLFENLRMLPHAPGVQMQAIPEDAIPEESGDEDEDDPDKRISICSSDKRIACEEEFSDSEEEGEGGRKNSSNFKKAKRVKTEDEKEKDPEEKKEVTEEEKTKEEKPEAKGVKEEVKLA
Description: HDAC1 fluorimetric inhibitory activity assay (Fluor de Lys kit). It counts as biochemical. Particulars: read-out: HDAC1-Inhibitory Ability (IC50). The protocol:
HDAC1-inhibitory activity was determined using the HDAC activity analysis kit by fluorescence measurement (HDAC1 Fluorimetric Drug Discovery Assay Kit A Fluoro de Lys Fluorescent Assay System, Enzo Life Sciences International, Inc., Farmingdale, New York, USA) in accordance with the manufacturer’s instructions. Fluorescence was measured at an excitation wavelength of 360 nm and emission of 460 nm. […] All experiments were carried out in three repetitions.

The next data set in a line: in vitro. Particulars: human.
Another data set concerns HeLa cell line. Description: Cisplatin cytotoxicity alone and combined with hydroxamic acids, HeLa (MTT). Format: cell-based, human. Particulars: 5 µM of compound with cisplatin.
The next data set concerns HeLa/CDDP cells. Description: Cisplatin cytotoxicity alone and combined with hydroxamic acids, cisplatin-resistant HeLa/CDDP (MTT). Format: cell-based, human. Conditions: 5 µM hydroxamic acid.
The test system of another data set is PA-1 cells. Briefly: Glycolysis stress test (Seahorse XFe96, ECAR). Format: cell-based, human. Conditions: PA-1, 100 µM. As to the method:
In order to achieve a 90–95% monolayer, approximately 40,000 PA-1 cells per well were placed in XF96 cell-culture plates and a glycolysis stress test was performed 24 h later using an XFe96 extracellular flow analyzer (Seahorse Bioscience, North Billerica, MA, USA) by measuring the rate of extracellular medium acidification (ECAR).
Briefly, after the cells were seeded, the plate was placed in an incubator and cultured for 24 h under the standard conditions described above.
After placing the tablet in the analyzer, a step-by-step measurement of the extracellular acidification rate of the medium was performed in response to the sequential addition of modulators: port A—the studied compounds at a concentration of 100 µM, port B—10 mM of glucose (Seahorse Bioscience, North Billerica, MA, USA), port C—1 µM of oligomycin (Sigma Aldrich, St. Louis, MI, USA) and port D—25 mM 2-deoxy-D-glucose (Sigma Aldrich, St. Louis, MI, USA). To ensure the stability of each measurement, three separate readings were taken.
Glycolysis was measured by estimating the difference between the maximum ECAR after glucose injection and the last measurement before glucose addition. Such a parameter of glycolytic function as glycolytic capacity was determined by analyzing the difference between the maximum ECAR after oligomycin injection and the last measurement before glucose addition. Glycolytic reserve was defined as the difference between glycolytic capacity and glycolysis.

Description for HeLa cell line: Cell viability was measured using MTT analysis, as described earlier [48]. In short, 10,000 HeLa and Hek-293 cells per well were placed in sterile 96-well culture plates and cultured under the standard conditions described above for 24 h to adhere. After the time elapsed, the cells were treated with the studied compounds in a concentration range from 0.1 to 100 µM (0.1–1–3–10–30–100) and incubated for 24 h. The control samples contained an equivalent volume of solvent (DMSO < 1%). At the end of incubation, cell viability was measured by adding an MTT solution (the final concentration was 5 mg/mL, DiaM, Moscow, Russia). After 2 h of incubation at 37 °C, the nutrient medium was carefully aspirated and replaced with 200 µL of dimethyl sulfoxide to dissolve the formazane granules. The optical density of the formazane solution was determined using a multifunctional analyzer Cytation™3 (BioTek Instruments, Inc., Winooski, VT, USA) at λ = 530 nm. […]
Then, the cells were treated with a combination of increasing doses of cytostatic agents and the test compound with a constant ratio of 1:4, and subsequently, a cell death analysis was performed. The CI values were calculated and plotted using CompuSyn.exe (Biosoft, Ferguson, MO, USA) based on the concentration and effect of each agent and their combinations according to instructions of the software. […]
Description for HeLa cells: as §1, §2
Description for HeLa/CDDP cells: Cell viability was measured using MTT analysis, as described earlier [48]. In short, 10,000 HeLa and Hek-293 cells per well were placed in sterile 96-well culture plates and cultured under the standard conditions described above for 24 h to adhere. After the time elapsed, the cells were treated with the studied compounds in a concentration range from 0.1 to 100 µM (0.1–1–3–10–30–100) and incubated for 24 h. The control samples contained an equivalent volume of solvent (DMSO < 1%). At the end of incubation, cell viability was measured by adding an MTT solution (the final concentration was 5 mg/mL, DiaM, Moscow, Russia). […] The optical density of the formazane solution was determined using a multifunctional analyzer Cytation™3 (BioTek Instruments, Inc., Winooski, VT, USA) at λ = 530 nm. All experiments were carried out in three repetitions.
Description for in vitro: as §1, §2

By IC50 is commonly meant the concentration that gives 50% inhibition. As usually defined, the melting point is the temperature, or range, at which the solid turns liquid. The compound `CC1(C)C2CC=C(CNC(=O)/C=C/c3ccc(C(=O)NO)cc3)[C@@H]1C2` [18a, 4-((E)-3-((((1R)-6,6-Dimethylbicyclo[3.1.1]hept-2-en-2-yl)methyl)amino)-3-oxoprop-1-en-1-yl)-N-hydroxybenzamide] yielded a melting point of 96.5 °C. The compound further showed an IC50 at 24 h in data set [1] of 46.7 ± 2.93 µM. For the same compound, the 50% inhibitory concentration (IC50) in the data set with HeLa cells worked out at 29.2 ± 1.06 µM. In addition, the IC50 at HDAC1 came out at 6.9 ± 0.03 µM.

As for `CC1(C)C2CC=C(CNC(=O)c3ccc(/C=C/C(=O)NO)cc3)[C@H]1C2` [21b, N-(((1S)-6,6-Dimethylbicyclo[3.1.1]hept-2-en-2-yl)methyl)-4-((E)-3-(hydroxyamino)-3-oxoprop-1-en-1-yl)benzamide], the IC50 in the data set on HeLa cells came to 42.8 ± 1.28 µM; on HDAC1, 8.2 ± 0.49 µM. In addition, half-maximal inhibition in the data set “in vitro” (IC50 at 24 h) required 37.2 ± 1.89 µM.

Turning to `CC1(C)C2CC=C(CCNC(=O)c3ccc(/C=C/C(=O)NO)cc3)[C@@H]1C2` [21c, N-(2-((1R)-6,6-Dimethylbicyclo [3.1.1]hept-2-en-2-yl)ethyl)-4-((E)-3-(hydroxyamino)-3-oxoprop-1-en-1-yl)benzamide], the melting point fell in the range of 132.5 to 132.6 °C. In addition, in data set [1], the 50% inhibitory concentration (IC50) at 24 h was 33.9 ± 2.59 µM. Also, the IC50 with HeLa cells turned out to be 19.1 ± 0.96 µM. Moreover, the IC50 at HDAC1 stood at 5 ± 0.12 µM.

As for `CC1(C)C2CC=C(CNC(=O)/C=C/c3ccc(C(=O)NO)cc3)[C@H]1C2` [18b, 4-((E)-3-((((1S)-6,6-Dimethylbicyclo[3.1.1]hept-2-en-2-yl)methyl)amino)-3-oxoprop-1-en-1-yl)-N-hydroxybenzamide], half-maximal inhibition in data set [1] (IC50 at 24 h) was put at 38.9 ± 1.24 µM. The IC50 in the data set on HeLa cells was 43.6 ± 1.02 µM; on HDAC1, 7.96 ± 0.28 µM.

`CC(/C=C/C(=O)NO)=C\[C@@H](C)C(=O)c1ccc(N(C)C)cc1` [Trichostatin A, reference compound] registered a concentration for half-maximal inhibition (IC50) at 24 h in data set [1] of 0.22 ± 0.01 µM. In addition, the half-maximal inhibitory concentration (IC50) in the data set with HeLa cells was found to be 0.38 ± 0.02 µM.

The compound `CC1(C)C2CC=C(CNC(=O)c3ccc(/C=C/C(=O)NO)cc3)[C@@H]1C2` [21a, N-(((1R)-6,6-Dimethylbicyclo[3.1.1]hept-2-en-2-yl)methyl)-4-((E)-3-(hydroxyamino)-3-oxoprop-1-en-1-yl)benzamide] gave a melting point of 74.6 °C. Moreover, in the data set with HeLa cells, the IC50 stood at 18 ± 0.47 µM. Moreover, the half-inhibitory concentration (IC50) at HDAC1 came out at 7.23 ± 0.46 µM. The same compound returned an IC50 at 24 h in the data set “in vitro” of 21.2 ± 1.66 µM.

As a reminder, the inhibition is the change of the read-out against control, counted positive when it falls. On to `CC1(C)C2CC=C(CCNC(=O)/C=C/c3ccc(C(=O)NO)cc3)[C@@H]1C2` [18c, 4-((E)-3-((2-((1R)-6,6-Dimethylbicyclo[3.1.1]hept-2-en-2-yl)ethyl)amino)-3-oxoprop-1-en-1-yl)-N-hydroxybenzamide], for which the “decrease in the value of cisplatin IC50” value in the data set with HeLa cell line is 34.50%. In data set [1], this compound gave an IC50 at 24 h of 34 ± 3.04 µM. Also, the values for the concentration for half-maximal inhibition (IC50) in the data set on HeLa cells and at HDAC1 were 33.8 ± 1.19 µM and 4.45 ± 0.3 µM, respectively. Also, the “fold decrease in the IC50 of cisplatin” value in the data set on HeLa/CDDP cells is on record as “approximately 2.02 fold”. Moreover, in the data set on PA-1 cells (Homo sapiens, vs. control, read-out: inhibition of glycolytic reserve (ECAR)), the inhibition at 100 µM came out at 86%. Moreover, in the data set on PA-1 cells (p < 0.0001 vs. control), the “glycolytic capacity (maximum ECAR after oligomycin injection)” value is listed as “significantly lower”. Besides, the “reduction of glycolysis (ECAR)” value in the data set with PA-1 cells (vs. control) is recorded as 26.6%.
